Experimental data reported in patent US5328830A, “Potassium channel modulators” (Miles Inc., priority 1992, dated 1994).
Where “and” joins values, the source holds several entries; their conditions need not be identical. Equal entries are not always repeated. Structures can show the parent of a compound that is named as a salt. Where two headings read alike, the source gives them in different places.

How the values were obtained:
[1] = tested on: CMPD-I-sensitive, K^+ channel binding site; assay: [^3 H]CMPD-I ligand binding to intact RINm5F cells; set-up: species or system rat; conditions: for inhibition of [^3 H]CMPD-I binding: result in words
Experimental: The cells were fed three times a week and passed weekly with 0.25% trypsin/0.02% EDTA (JRH Biosciences, Lenexa, Kans.). For intact cell binding experiments, RINm5F cells were plated onto 60 mm polystyrene petri dishes (Corning) at 5×10^6 cells/dish and grown for 3 days without a change of media. Alternatively, cells were seeded 1×10^6 cells/dish and grown for 7 days with the last feeding two days prior to use. Final cell density was 10-20 ×10^6 cells/dish. […] Intact cell binding was performed with the cells attached to the dishes. Binding was terminated by three successive 3 ml washes of cold (4° C.) buffer. Cells were removed from the dish in 1.6 ml of 0.5 N NaOH, briefly sonicated and radioactivity was quantitated with a liquid scintillation counter using 10 ml cocktail (Ultima Gold, Packard). Statistical analysis to determine KD and BMax was accomplished using nonlinear regression (Enzfitter, Elsevier-Biosoft, Cambridge, UK). IC50 values were determined using a sigmoidal fit of mean percent inhibition versus log of concentration. Petri dishes were removed from the incubator, media was aspirated and the cells were washed (x2) with 3 ml oxygenated (5%CO2 /95%O2) Hanks Buffer (37° C.). Cells were allowed to equilibrate in buffer at least 10 minutes. […] Dishes were incubated at 37° C., in an atmosphere of 5% CO2 /95% for 90 minutes. Bound radioligand was separated from free by aspirating the buffer and washing the cells rapidly (x3) with 3 ml ice cold (4° C.) Hanks Buffer. Cells were then removed and solubilized with the addition of 1.6 ml 0.5N NaOH. Dishes were mounted on an orbit shaker (Lab Line) and rotated at 100-125 rpm for 20-45 minutes until the cells would detach from the plates. […] The solutions were vortexed and an aliquot (10 μ`) from each tube was removed for total protein determination. The remainder (1.59 ml) was transferred to a 20 ml vial with 10 ml Ultima Gold (Packard) scintillation cocktail and mixed until the aqueous phase cleared. Each sample was counted for at least one minute by a liquid scintillation system set for counting tritium. Total protein content of each dish was determined by the method of Bradford with bovine serum albumin used as the standard. […] Percent Inhibition of specific binding by test compounds was determined by calculating: 100-[(Cpm (with Drug)-Nonspecific cpm.div.Specific cpm)×100](Basic program) Free and Bound radioligand was calculated (Basic program) and a saturation curve based on a nonlinear regression fit of the data was used to determine a KD (nM) and Bmax (fmoles/mg total cellular protein) of binding (Enzfitter, Id.). Mean percent inhibition of binding at the concentrations tested for each drug was fit to a sigmoidal function. IC50 values were calculated from the plot of the fraction of maximal inhibition versus Log of concentration (Enzfitter, Id.).

rat aorta = assay: Aortic relaxation of rat aortic rings precontracted with 20 mM KCl; conditions: aortae depolarized with 20 mM KCl
Experimental: Male Long-Evans Hooded rats (200-400 g) were sacrificed by acute decapitation. Thoracic aortae were rapidly removed and placed in an oxygenated (100% O2) physiological saline solution (PSS) (pH 7.4) of the following composition in mM: NaCl, 130; KCl, 5.9; MgCl2, 1.2; CaCl2, 0.8; HEPES, 22 and glucose, 11.1. The aortae were trimmed of fat, cut into rings 3 mm in length, mounted in an organ bath containing 10 ml of oxygenated PSS at 37° C. and stretched to a resting tension of 2.0 g. The aortae were depolarized with 20 mM KCl and after contractile response had stabilized, vasodilators were added. The vasorelaxation produced by the drugs was reversed by glyburide (a potent antagonist of ATP-dependent K^+ channels, as described above). Prior to the aortic preparation, the instrument to measure changes in aortic tension was set up and each channel was statically calibrated for linearity using Class S metric weights from 1 to 5 grams, the range consistent with changes observed in this study. This instrument translates isometric changes in tension over time to an electrical signal expressed as a tracing that can be quantified by peak height. […] After a 90 minute equilibration the resting tension was readjusted to the baseline level. […] Percent relaxation of putative K^+ channel agonists was calculated as follows: 100-[(Peak Height (mm) after Drug.div.Initial Peak Height (mm) after 20 mM K^+)×100] […]

Row | Structure (SMILES) | inhibition of [^3 H]CMPD-I binding [1] | also measured
1 | CC[N+](CC)(CC)CC [TEA] | inhibit binding | –
2 | Cc1cnc(C(=O)NCCc2ccc(S(=O)(=O)NC(=O)NC3CCCCC3)cc2)cn1 [glypizide] | inhibit binding | –
3 | Nc1cc(N2CCCCC2)nc(N)[n+]1OS(=O)(=O)[O-] [minoxidil sulfate] | inhibits binding | –
4 | CC(N/C(=N\C#N)Nc1ccncc1)C(C)(C)C (centres unmarked) [pinacidil] | inhibited | –
5 | COc1ccc(Cl)cc1C(=O)NCCc1ccc(S(=O)(=O)NC(=O)NC2CCCCC2)cc1 [glyburide] | inhibit binding | reversal of vasorelaxation produced by the drugs (rat aorta): reversed
6 | [3H]c1cc([3H])c(NC(=C[N+](=O)[O-])NC(C)C(C)(C)C)c(OCC)c1 (single isomer, unassigned) [[^3 H]CMPD-I] | – | Kd ([1]; Scatchard analysis, single binding site (FIG. 3), read-out: apparent KD): 0.7 nM; Kd ([1]; determined by saturation analysis, read-out: KD): 2 nM; Kd ([1]; two additional experiments, read-out: KD): 2.3 nM and 2.4 nM
7 | C=C[C@H]1C[N@@]2CC[C@H]1C[C@@H]2[C@@H](O)c1ccnc2ccc(OC)cc12 [quinidine] | inhibit binding | –
8 | C=C[C@H]1C[N@@]2CC[C@H]1C[C@H]2[C@H](O)c1ccnc2ccc(OC)cc12 [quinine] | inhibit binding | –
